In the NIST ThermoML archive (doi:10.1021/je101361u):

Assay: xn = mol fraction of the nth substance listed
Settings: 101.3 kPa, Liquid

COCCOC [1,2-dimethoxyethane] + ClCCCl
mass density [kg/m3]
Settings | 283.15 K | 288.15 K | 293.15 K | 298.15 K | 303.15 K | 308.15 K
x2 = 0.0251 | 885.37 | 879.96 | 874.49 | 868.99 | 863.45 | 857.87
x2 = 0.05 | 893.06 | 887.61 | 882.11 | 876.59 | 871.02 | 865.42
x2 = 0.0501 | 893.14 | 887.69 | 882.19 | 876.66 | 871.08 | 865.47
x2 = 0.075 | 900.9 | 895.43 | 889.9 | 884.34 | 878.74 | 873.1
x2 = 0.1 | 908.78 | 903.28 | 897.71 | 892.12 | 886.49 | 880.82
x2 = 0.1552 | 926.63 | 921.05 | 915.42 | 909.76 | 904.05 | 898.32
x2 = 0.2001 | 941.4 | 935.76 | 930.07 | 924.35 | 918.59 | 912.79
x2 = 0.2501 | 958.23 | 952.53 | 946.77 | 940.98 | 935.15 | 929.28
x2 = 0.3002 | 975.46 | 969.68 | 963.86 | 957.99 | 952.09 | 946.16
x2 = 0.35 | 992.96 | 987.11 | 981.21 | 975.28 | 969.3 | 963.29
x2 = 0.4001 | 1010.98 | 1005.05 | 999.08 | 993.07 | 987.02 | 980.93
x2 = 0.45 | 1029.37 | 1023.36 | 1017.3 | 1011.21 | 1005.09 | 998.92
x2 = 0.5 | 1048.22 | 1042.13 | 1035.99 | 1029.82 | 1023.61 | –
x2 = 0.5001 | 1048.32 | 1042.23 | 1036.09 | 1029.91 | 1023.7 | –
x2 = 0.55 | 1067.59 | 1061.41 | 1055.19 | 1048.93 | 1042.63 | –
x2 = 0.6001 | 1087.41 | 1081.15 | 1074.83 | 1068.48 | 1062.09 | –
x2 = 0.65 | 1107.73 | 1101.37 | 1094.96 | 1088.51 | 1082.03 | –
x2 = 0.7 | 1128.6 | 1122.14 | 1115.63 | 1109.08 | 1102.5 | –
x2 = 0.75 | 1150.14 | 1143.57 | 1136.95 | 1130.3 | 1123.6 | –
x2 = 0.8 | 1172.13 | 1165.45 | 1158.71 | 1151.94 | 1145.15 | –
x2 = 0.85 | 1195.03 | 1188.23 | 1181.37 | 1174.49 | 1167.57 | –
x2 = 0.9 | 1218.48 | 1211.55 | 1204.56 | 1197.56 | 1190.51 | –
x2 = 0.925 | 1230.36 | 1223.37 | 1216.32 | 1209.25 | 1202.14 | –
x2 = 0.975 | 1254.94 | 1247.8 | 1240.62 | 1233.42 | 1226.18 | –
